A word on the IC50: it is the concentration that inhibits the measured activity by half.

In patent publication US20230062100A1, “SUBSTITUTED AMINOQUINOLONES AS DGKALPHA INHIBITORS FOR IMMUNE ACTIVATION” (Bayer Aktiengesellschaft, priority 2019, published 2023) one finds IC50 data, which are given here for 27 molecules.

This experiment deals with DGKα (Homo sapiens, UniProt P23743). Nature of the experiment: Human DGKα kinase activity inhibition assay (ADP-Glo). Format: biochemical. The conditions noted are these: in vitro human DGKα kinase activity inhibition assay. The method, then: Human DGKα inhibitory activity of compounds of the present invention was quantified employing the human DGKα kinase activity assay as described in the following paragraphs. In essence, the enzyme activity was measured by quantification of the adenosine-di-phosphate (ADP) generated as a co-product of the enzyme reaction via the “ADP-Glo™ Kinase Assay” kit from the company Promega. This detection system works as follows: In a first step the ATP not consumed in the kinase reaction is quantitatively converted to cAMP employing an adenylate cyclase (“ADP-Glo-reagent”), then the adenylate cyclase is stopped and the ADP generated in the kinase reaction converted to ATP, which subsequently generates in a luciferase-based reaction a glow-luminescence signal (“Kinase Detection Reagent”). C-terminally FLAG-tagged, recombinant full-length human DGKα (expressed in baculovirus infected insect cells, purified using anti-Flag pulldown and size exclusion chromatography as described below, DGKα_hu_1) was used as enzyme. As substrate for the kinase 1,2-dioleoyl-sn-glycerol, reconstituted in octyl-β-D-glucopyranoside micelles, was used. For the preparation of the micelles, 1 volume of a 16.1 mM solution of 1,2-dioleoyl-sn-glycerol (Avanti, Cat. #O8001-25G) in chloroform was slowly evaporated using a nitrogen stream. Subsequently, 22.55 volumes of a 510 mM solution of octyl-β-D-glucopyranoside (Sigma-Aldrich, Cat. #O8001-10G) in 50 mM MOPS buffer (pH 7.4) were added, and the mixture was sonicated in an ultrasonic bath for 20 s. Then 35 volumes of 50 mM MOPS buffer (pH 7.4) were added to yield a solution of 0.28 mM 1,2 dioleoyl-sn-glycerol and 200 mM octyl-β-D-glucopyranoside, which was aliquoted, flash-frozen in liquid nitrogen, and stored at −20° C. until use. For each experiment, a fresh aliquot was quickly thawed and diluted 24-fold with aqueous assay buffer (described below) containing 95.7 μM adenosine triphosphate (Promega) to yield a 1.67-fold concentrated substrate solution. For the assay 50 nl of a 100-fold concentrated solution of the test compound in dimethyl sulfoxide (DMSO, Sigma) was pipetted into either a white 1536-well or a white low-volume 384-well microtiter plate (both Greiner Bio-One, Frickenhausen, Germany). […] The concentration of DGK a was adjusted depending of the activity of the enzyme lot and was chosen appropriate to have the assay in the linear range, a typical concentration is about 0.1 nM. The reaction was stopped by the addition of 2.5 μl of “ADP-Glo-reagent” (1 to 1.5 diluted with water) and the resulting mixture was incubated at 22° C. for 1 h to convert the ATP not consumed in the kinase reaction completely to cAMP. […] The amount of emitted light was taken as a measure for the amount of ADP generated and thereby for the activity of the DGKα.
(ADP-Glo turns the ADP formed in a reaction into a luminescent signal.)

Sequence of DGKα (P23743 with tags, fused parts or gaps): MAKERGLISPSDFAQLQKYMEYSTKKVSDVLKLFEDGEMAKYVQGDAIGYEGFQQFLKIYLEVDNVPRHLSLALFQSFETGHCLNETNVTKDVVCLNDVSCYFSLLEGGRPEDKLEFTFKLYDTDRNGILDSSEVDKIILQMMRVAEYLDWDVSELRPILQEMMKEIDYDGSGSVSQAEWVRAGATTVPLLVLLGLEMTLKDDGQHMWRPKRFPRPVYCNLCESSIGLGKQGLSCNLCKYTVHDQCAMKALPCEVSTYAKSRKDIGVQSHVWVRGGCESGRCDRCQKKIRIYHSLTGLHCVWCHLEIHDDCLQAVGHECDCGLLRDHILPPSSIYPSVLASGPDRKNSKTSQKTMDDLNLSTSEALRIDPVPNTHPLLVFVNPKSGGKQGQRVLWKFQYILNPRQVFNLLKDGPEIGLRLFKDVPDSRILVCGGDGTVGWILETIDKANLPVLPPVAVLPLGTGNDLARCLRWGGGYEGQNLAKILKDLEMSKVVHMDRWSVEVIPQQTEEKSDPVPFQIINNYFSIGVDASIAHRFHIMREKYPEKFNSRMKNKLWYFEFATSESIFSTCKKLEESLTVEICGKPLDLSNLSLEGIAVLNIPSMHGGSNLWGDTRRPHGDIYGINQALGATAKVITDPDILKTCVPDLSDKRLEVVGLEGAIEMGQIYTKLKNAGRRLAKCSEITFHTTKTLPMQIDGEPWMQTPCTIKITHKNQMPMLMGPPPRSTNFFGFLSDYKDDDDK

With `Cn1c(=O)c(C(N)=O)c(N2CCC(Oc3ccc(OC(F)F)cc3)CC2)c2ccccc21` [Example 52, 4-{4-[4-(difluoromethoxy)phenoxy]piperidin-1-yl}-1-methyl-2-oxo-1,2-dihydroquinoline-3-carboxamide], the IC50 turned out to be 0.0038 µM. The result for `Cn1c(=O)c(C#N)c(N2CCC(Sc3ccccc3)CC2)c2ccccc21` [Example 53, 1-methyl-2-oxo-4-[4-(phenylsulfanyl)piperidin-1-yl]-1,2-dihydroquinoline-3-carbonitrile] reads 0.0011 µM. The value for `Cn1c(=O)c(C#N)c(N2CCC(Oc3ccccc3)CC2)c2ccc(Br)cc21` [Example 54, 7-bromo-1-methyl-2-oxo-4-(4-phenoxypiperidin-1-yl)-1,2-dihydroquinoline-3-carbonitrile] was 0.0058 µM; that for `Cn1c(=O)c(C#N)c(N2CCC(Sc3ccccc3)CC2)c2ccc(Br)cc21` [Example 55, 7-bromo-1-methyl-2-oxo-4-[4-(phenylsulfanyl)piperidin-1-yl]-1,2-dihydroquinoline-3-carbonitrile] was 0.0044 µM. The value for `Cn1c(=O)c(C#N)c(N2CCC(Oc3ccc(F)cc3)CC2)c2ccc(Br)cc21` [Example 56, 7-bromo-4-[4-(4-fluorophenoxy)piperidin-1-yl]-1-methyl-2-oxo-1,2-dihydroquinoline-3-carbonitrile] was 0.0099 µM; that for `Cn1c(=O)c(C#N)c(N2CCC(Oc3ccc(Cl)cc3)CC2)c2ccc(Br)cc21` [Example 57, 7-bromo-4-[4-(4-chlorophenoxy)piperidin-1-yl]-1-methyl-2-oxo-1,2-dihydroquinoline-3-carbonitrile] was 0.017 µM. In turn, `Cn1c(=O)c(C#N)c(N2CCC(Oc3ccc(OC(F)(F)F)cc3)CC2)c2ccc(Br)cc21` [Example 58, 7-bromo-1-methyl-2-oxo-4-{4-[4-(trifluoromethoxy)phenoxy]piperidin-1-yl}-1,2-dihydroquinoline-3-carbonitrile] came in with an IC50 of 0.019 µM. As to `Cn1c(=O)c(C#N)c(N2CCC(Oc3ccc(C(F)(F)F)cc3)CC2)c2ccc(Br)cc21` [Example 59, 7-bromo-1-methyl-2-oxo-4-{4-[4-(trifluoromethyl)phenoxy]piperidin-1-yl}-1,2-dihydroquinoline-3-carbonitrile], it took 0.018 µM to reach half-maximal inhibition (IC50). The value for `Cn1c(=O)c(C#N)c(N2CCC(Oc3cccc(Cl)c3)CC2)c2ccc(Br)cc21` [Example 60, 7-bromo-4-[4-(3-chlorophenoxy)piperidin-1-yl]-1-methyl-2-oxo-1,2-dihydroquinoline-3-carbonitrile] was 0.027 µM; that for `Cn1c(=O)c(C#N)c(N2CCC(Oc3cccc(OC(F)(F)F)c3)CC2)c2ccc(Br)cc21` [Example 61, 7-bromo-1-methyl-2-oxo-4-{4-[3-(trifluoromethoxy)phenoxy]piperidin-1-yl}-1,2-dihydroquinoline-3-carbonitrile] was 0.022 µM; that for `Cn1c(=O)c(C#N)c(N2CCC(Oc3ccc(OC(F)(F)F)cc3)CC2)c2ccc(O)cc21` [Example 62, 7-hydroxy-1-methyl-2-oxo-4-{4-[4-(trifluoromethoxy)phenoxy]piperidin-1-yl}-1,2-dihydroquinoline-3-carbonitrile] was 0.0023 µM. The result for `Cn1c(=O)c(C#N)c(N2CCC(Oc3ccc(OC(F)(F)F)cc3)CC2)c2ccc(F)cc21` [Example 63, 7-fluoro-1-methyl-2-oxo-4-{4-[4-(trifluoromethoxy)phenoxy]piperidin-1-yl}-1,2-dihydroquinoline-3-carbonitrile] reads 0.012 µM. The result for `Cn1c(=O)c(C#N)c(N2CCC(Oc3ccc(OC(F)(F)F)cc3)CC2)c2ccc(Cl)cc21` [Example 64, 7-chloro-1-methyl-2-oxo-4-{4-[4-(trifluoromethoxy)phenoxy]piperidin-1-yl}-1,2-dihydroquinoline-3-carbonitrile] reads 0.016 µM. For the molecule `COc1ccc2c(N3CCC(Oc4ccc(Cl)cc4)CC3)c(C#N)c(=O)n(C)c2c1` [Example 65, 4-[4-(4-chlorophenoxy)piperidin-1-yl]-7-methoxy-1-methyl-2-oxo-1,2-dihydroquinoline-3-carbonitrile], the IC50 was 0.0073 µM. Take `COc1ccc2c(N3CCC(Oc4ccc(C(F)(F)F)cc4)CC3)c(C#N)c(=O)n(C)c2c1` [Example 66, 7-methoxy-1-methyl-2-oxo-4-{4-[4-(trifluoromethyl)phenoxy]piperidin-1-yl}-1,2-dihydroquinoline-3-carbonitrile]: the IC50 came out at 0.014 µM. The result for `Cc1ccc2c(N3CCC(Oc4ccc(OC(F)(F)F)cc4)CC3)c(C#N)c(=O)n(C)c2c1` [Example 67, 1,7-dimethyl-2-oxo-4-{4-[4-(trifluoromethoxy)phenoxy]piperidin-1-yl}-1,2-dihydroquinoline-3-carbonitrile] reads 0.0064 µM; that for `Cn1c(=O)c(C#N)c(N2CCC(Sc3ccccc3)CC2)c2ccc(C3CC3)cc21` [Example 68, 7-cyclopropyl-1-methyl-2-oxo-4-[4-(phenylsulfanyl)piperidin-1-yl]-1,2-dihydroquinoline-3-carbonitrile], 0.029 µM. The result for `CCCCOc1ccc2c(N3CCC(Sc4ccccc4)CC3)c(C#N)c(=O)n(C)c2c1` [Example 69, 7-butoxy-1-methyl-2-oxo-4-[4-(phenylsulfanyl)piperidin-1-yl]-1,2-dihydroquinoline-3-carbonitrile] reads 0.507 µM; that for `Cn1c(=O)c(C#N)c(N2CCC(Oc3ccccc3)CC2)c2ccc(OC3CC3)cc21` [Example 70, 7-(cyclopropyloxy)-1-methyl-2-oxo-4-(4-phenoxypiperidin-1-yl)-1,2-dihydroquinoline-3-carbonitrile], 0.017 µM; that for `COc1ccc2c(N3CCC(Oc4ccc(OC(F)(F)F)cc4)CC3)c(C#N)c(=O)n(C)c2c1` [Example 71, 7-methoxy-1-methyl-2-oxo-4-{4-[4-(trifluoromethoxy)phenoxy]piperidin-1-yl}-1,2-dihydroquinoline-3-carbonitrile], 0.0057 µM. Molecule `Cn1c(=O)c(C#N)c(N2CCC(Oc3ccc(Cl)cc3)CC2)c2ccc(C3COC3)cc21` [Example 72, 4-[4-(4-chlorophenoxy)piperidin-1-yl]-1-methyl-7-(oxetan-3-yl)-2-oxo-1,2-dihydroquinoline-3-carbonitrile] yielded an IC50 of 0.016 µM. The result for `Cn1c(=O)c(C#N)c(N2CCC(Oc3cccc(Cl)c3)CC2)c2ccc(C3COC3)cc21` [Example 73, 4-[4-(3-chlorophenoxy)piperidin-1-yl]-1-methyl-7-(oxetan-3-yl)-2-oxo-1,2-dihydroquinoline-3-carbonitrile] reads 0.013 µM; that for `COCCc1ccc2c(N3CCC(Oc4cccc(Cl)c4)CC3)c(C#N)c(=O)n(C)c2c1` [Example 74, 4-[4-(3-chlorophenoxy)piperidin-1-yl]-7-(2-methoxyethyl)-1-methyl-2-oxo-1,2-dihydroquinoline-3-carbonitrile], 0.0035 µM; that for `COCCc1ccc2c(N3CCC(Oc4ccc(Cl)cc4)CC3)c(C#N)c(=O)n(C)c2c1` [Example 75, 4-[4-(4-chlorophenoxy)piperidin-1-yl]-7-(2-methoxyethyl)-1-methyl-2-oxo-1,2-dihydroquinoline-3-carbonitrile], 0.0037 µM.

Molecule `COCCc1ccc2c(N3CCC(Oc4cccc(OC(F)(F)F)c4)CC3)c(C#N)c(=O)n(C)c2c1` [Example 76, 7-(2-methoxyethyl)-1-methyl-2-oxo-4-{4-[3-(trifluoromethoxy)phenoxy]piperidin-1-yl}-1,2-dihydroquinoline-3-carbonitrile] showed a half-maximal inhibitory concentration (IC50) of 0.0068 µM. The value for `Cn1c(=O)c(C#N)c(N2CCC(Oc3cccc(OC(F)(F)F)c3)CC2)c2ccc(C3COC3)cc21` [Example 77, 1-methyl-7-(oxetan-3-yl)-2-oxo-4-{4-[3-(trifluoromethoxy)phenoxy]piperidin-1-yl}-1,2-dihydroquinoline-3-carbonitrile] was 0.017 µM. The value for `Cn1c(=O)c(C#N)c(N2CCC(Oc3cccc(OC(F)(F)F)c3)CC2)c2ccc(P(C)(C)=O)cc21` [Example 78, 7-(dimethylphosphoryl)-1-methyl-2-oxo-4-{4-[3-(trifluoromethoxy)phenoxy]piperidin-1-yl}-1,2-dihydroquinoline-3-carbonitrile] was 1.13 µM.
